In brackets after ≈: the same amount, converted by molar mass.
Key:
[1] = Approximate solubility of Zileuton in various solvents/vehicles; format: physicochemical
Method: Solubility of Zileuton in Various Solvents
Approximately solubility of the Zileuton was measured in different vehicles. Semi-soild and waxy solid excipients were melted and tested at 50° C. or 70° C.

[2] = test system: phorbol ester induced ear edema in ICR mice; experiment: Phorbol ester induced ear edema test; format: in vivo
Method: Phorbol Ester Induced Ear Edema Test
The effect of Zileuton-containing formulations on phorbol ester induced ear edema in ICR mice was evaluated. One hundred and twenty (120) female ICR mice were assigned to eleven (11) groups by randomization with BioBook software to achieve similar mean weight and right ear thickness baseline among groups. Mice were terminated by 95% CO2 asphyxiation and then cervical dislocation.
Totally nine (9) Zileuton-containing formulations which are SO13, SO17, WB6, Gel-10, Gel-11, LO3, LO13, SPC19 and Zileuton 1.0% cream were selected for the tests Dexamethasone were used for the reference and Acetone was treated to the vehicle group.
Mice were anesthetized with 2-5 isoflurane. The mice were sensitized by painting 5 μg of phorbol ester dissolved in 0.02 mL of Acetone on ear inside and out. […] Six (6) hours after the modeling, the both side's ear thickness were measured after anesthetized by isoflurane (2-3%), respectively. Ear swelling response was determined by ear thickness measured with a micrometer before challenge and 6 hours after challenge and reported as the mean change in ear thickness (ΔT±S.E.M.). Percent suppression of ear swelling response was calculated as % suppression=[1−(ΔT of sensitized mice exposed to experimental treatment/ΔT of sensitized mice exposed to vehicle treatment)]×100.

CC(c1cc2ccccc2s1)N(O)C(N)=O (racemic) [Zileuton, (±)-1-(1-(benzo[b]thiophen-2-yl)ethyl)-1-hydroxyurea]
solubility ([1]; 25 mM sodium citrate buffer, 25 °C, pH 4, aqueous buffer, vehicle 25 mM sodium citrate buffer solution (pH = 4)): < 5 mg/mL
solubility ([1]; 20% 2-Hydroxypropyl-β-cyclodextrin in water, 25 °C, aqueous with cosolvent or surfactant or cyclodextrin, vehicle 20% 2-Hydroxypropyl-β-cyclodextrin in water): 10 to 16.7 mg/mL (≈ 42.3 to 70.7 mM)
solubility ([1]; 20% Poloxamer 188 in water, 25 °C, aqueous with cosolvent or surfactant or cyclodextrin, vehicle 20% Poloxamer 188 water): < 5 mg/mL
solubility ([1]; 20% Sulfobutylether-β-cyclodextrin in water, 25 °C, aqueous with cosolvent or surfactant or cyclodextrin, vehicle 20% Sulfobutylether-β-cyclodextrin in water): 10 to 16.7 mg/mL (≈ 42.3 to 70.7 mM)
solubility ([1]; 25 °C, pH 4, aqueous with cosolvent or surfactant or cyclodextrin, vehicle 20% 2-Hydroxypropyl-β-cyclodextrin in pH 4 sodium citrate buffer): 10 to 16.7 mg/mL (≈ 42.3 to 70.7 mM)
solubility ([1]; 25 °C, pH 4, aqueous with cosolvent or surfactant or cyclodextrin, vehicle 20% Sulfobutylether-β-cyclodextrin in pH 4 sodium citrate buffer): 5 to 10 mg/mL (≈ 21.2 to 42.3 mM)
solubility ([1]; Beeswax polyethylene glycol-8, 70 °C, oil or lipid, vehicle Beeswax polyethylene glycol-8, 70° C.): 15.7 to 25 mg/mL (≈ 66.4 to 106 mM)
solubility ([1]; Caprylic glycerides, 50 °C, oil or lipid, vehicle Caprylic glycerides): 18.2 to 28.6 mg/mL (≈ 77 to 121 mM)
solubility ([1]; Caprylocaproyl polyoxyl glycerides, 25 °C, oil or lipid, vehicle Caprylocaproyl polyoxyl glycerides): 40 to 66.7 mg/mL (≈ 169 to 282 mM)
solubility ([1]; Castor oil, 25 °C, oil or lipid, vehicle Castor oil): < 5 mg/mL
solubility ([1]; Corn oil, 25 °C, oil or lipid, vehicle Corn oil): < 5 mg/mL
solubility ([1]; Diethylene glycol monoethyl ether, 25 °C, organic solvent or mixture, vehicle Diethylene glycol monoethyl ether): > 200 mg/mL
solubility ([1]; Dimethyl acetamide, 25 °C, organic solvent or mixture, vehicle Dimethyl acetamide): 66.7 to 100 mg/mL (≈ 282 to 423 mM)
solubility ([1]; Dimethyl formamide, 25 °C, organic solvent or mixture, vehicle Dimethyl formamide): 100 to 200 mg/mL (≈ 423 to 846 mM)
solubility ([1]; Dimethyl sulfoxide, 25 °C, organic solvent or mixture, vehicle Dimethyl sulfoxide): 100 to 200 mg/mL (≈ 423 to 846 mM)
solubility ([1]; Ethanol, 25 °C, organic solvent or mixture, vehicle Ethanol): 40 to 50 mg/mL (≈ 169 to 212 mM)
solubility ([1]; Ethyl oleate, 25 °C, oil or lipid, vehicle Ethyl oleate): < 5 mg/mL
solubility ([1]; Ethylene glycol palmitostearate, 70 °C, oil or lipid, vehicle Ethylene glycol palmitostearate): 50 to 100 mg/mL (≈ 212 to 423 mM)
solubility ([1]; Glycerin, 25 °C, organic solvent or mixture, vehicle Glycerin): < 10 mg/mL
solubility ([1]; Glyceryl mono and di stearate, 70 °C, oil or lipid, vehicle Glyceryl mono and di stearate): 25 to 50 mg/mL (≈ 106 to 212 mM)
solubility ([1]; Glyceryl monocaprate type I, 25 °C, oil or lipid, vehicle Glyceryl monocaprate type I): 8.3 to 12.5 mg/mL (≈ 35.1 to 52.9 mM)
solubility ([1]; Glyceryl monolinoleate, 25 °C, oil or lipid, vehicle Glyceryl monolinoleate): < 5 mg/mL
solubility ([1]; Glyceryl monostearate, 70 °C, oil or lipid, vehicle Glyceryl monostearate): 25 to 50 mg/mL (≈ 106 to 212 mM)
solubility ([1]; Hexylene glycol, 25 °C, organic solvent or mixture, vehicle Hexylene glycol): 25 to 50 mg/mL (≈ 106 to 212 mM)
solubility ([1]; Isopropyl myristate, 25 °C, oil or lipid, vehicle Isopropyl myristate): < 5 mg/mL
solubility ([1]; Lanolin, 70 °C, oil or lipid, vehicle Lanolin): < 5 mg/mL
solubility ([1]; Lauroyl polyoxyl-6 glycerides, 50 °C, oil or lipid, vehicle Lauroyl polyoxyl-6 glycerides): < 10 mg/mL
solubility ([1]; Lauroyl polyoxyl-32 glycerides, 50 °C, oil or lipid, vehicle Lauroyl polyoxyl-32 glycerides): < 10 mg/mL
solubility ([1]; Linoleoyl polyoxyl-6 glycerides, 25 °C, oil or lipid, vehicle Linoleoyl polyoxyl-6 glycerides): < 5 mg/mL
solubility ([1]; Liquid paraffin, 25 °C, oil or lipid, vehicle Liquid paraffin): < 5 mg/mL
solubility ([1]; Medium chain triglycerides, 25 °C, oil or lipid, vehicle Medium chain triglycerides): < 5 mg/mL
solubility ([1]; N-methyl-2-pyrrolidone, 25 °C, organic solvent or mixture, vehicle N-methyl-2-pyrrolidone): > 200 mg/mL
solubility ([1]; Oleic acid, 25 °C, oil or lipid, vehicle Oleic acid): < 5 mg/mL
solubility ([1]; Oleoyl polyoxyl-6 glycerides, 25 °C, oil or lipid, vehicle Oleoyl polyoxyl-6 glycerides): < 5 mg/mL
solubility ([1]; Olive oil, 25 °C, oil or lipid, vehicle Olive oil): < 5 mg/mL
solubility ([1]; Paraffin, 70 °C, oil or lipid, vehicle Paraffin): < 5 mg/mL
solubility ([1]; Peceol, 25 °C, oil or lipid, vehicle Peceol): < 5 mg/mL
solubility ([1]; Poly-oxyethylene esters of 12-hydroxystearic acid, 50 °C, organic solvent or mixture, vehicle Poly-oxyethylene esters of 12-hydroxystearic acid): 40 to 100 mg/mL (≈ 169 to 423 mM)
solubility ([1]; Polyethylene glyco-40 hydrogenated castor oil, 50 °C, organic solvent or mixture, vehicle Polyethylene glyco-40 hydrogenated castor oil): 22.2 to 28.6 mg/mL (≈ 93.9 to 121 mM)
solubility ([1]; Polyethylene glycol 200, 25 °C, organic solvent or mixture, vehicle Polyethylene glycol 200, 25° C.): 50 to 66.7 mg/mL (≈ 212 to 282 mM)
solubility ([1]; Polyethylene glycol 300, 25 °C, organic solvent or mixture, vehicle Polyethylene glycol 300, 25° C.): 40 to 66.7 mg/mL (≈ 169 to 282 mM)
solubility ([1]; Polyethylene glycol 400, 25 °C, organic solvent or mixture, vehicle Polyethylene glycol 400, 25° C.): 40 to 66.7 mg/mL (≈ 169 to 282 mM)
solubility ([1]; Polyethylene glycol 1500, 70 °C, organic solvent or mixture, vehicle Polyethylene glycol 1500, 70° C.): 50 to 100 mg/mL (≈ 212 to 423 mM)
solubility ([1]; Polyethylene glycol 3350, 70 °C, organic solvent or mixture, vehicle Polyethylene glycol 3350, 70° C.): 25 to 50 mg/mL (≈ 106 to 212 mM)
solubility ([1]; Polyethylene glycol 6000, 70 °C, organic solvent or mixture, vehicle Polyethylene glycol 6000, 70° C.): 25 to 50 mg/mL (≈ 106 to 212 mM)
solubility ([1]; Polyethylene glycol octadecyl ether, 25 °C, organic solvent or mixture, vehicle Polyethylene glycol octadecyl ether): 10 to 11.1 mg/mL (≈ 42.3 to 47 mM)
solubility ([1]; Polyethylene glycol sorbitan monolaurate, 25 °C, organic solvent or mixture, vehicle Polyethylene glycol sorbitan monolaurate): 12.5 to 14.3 mg/mL (≈ 52.9 to 60.5 mM)
solubility ([1]; Polyoxy ethylene sorbitan monooleate, 25 °C, organic solvent or mixture, vehicle Polyoxy ethylene sorbitan monooleate): 12.5 to 14.3 mg/mL (≈ 52.9 to 60.5 mM)
solubility ([1]; Polyoxy ethylene sorbitan monostearate, 25 °C, organic solvent or mixture, vehicle Polyoxy ethylene sorbitan monostearate): 33.3 to 50 mg/mL (≈ 141 to 212 mM)
solubility ([1]; Polyoxyl 35 hydrogenated castor oil, 25 °C, organic solvent or mixture, vehicle Polyoxyl 35 hydrogenated castor oil): 12.5 to 14.3 mg/mL (≈ 52.9 to 60.5 mM)
solubility ([1]; Propylene glycol dicaprylate, 25 °C, oil or lipid, vehicle Propylene glycol dicaprylate): < 5 mg/mL
solubility ([1]; Propylene glycol monocaprylate type II, 25 °C, oil or lipid, vehicle Propylene glycol monocaprylate type II): 12.5 to 25 mg/mL (≈ 52.9 to 106 mM)
solubility ([1]; Propylene glycol monolaurate, 25 °C, oil or lipid, vehicle Propylene glycol monolaurate): 8.3 to 12.5 mg/mL (≈ 35.1 to 52.9 mM)
solubility ([1]; Propylene glycol, 25 °C, organic solvent or mixture, vehicle Propylene glycol): 40 to 66.7 mg/mL (≈ 169 to 282 mM)
solubility ([1]; Sorbitan monolaurate, 25 °C, oil or lipid, vehicle Sorbitan monolaurate): < 5 mg/mL
solubility ([1]; Sorbitane monooleate, 25 °C, oil or lipid, vehicle Sorbitane monooleate): < 5 mg/mL
solubility ([1]; Triethanolamine, 25 °C, organic solvent or mixture, vehicle Triethanolamine): < 10 mg/mL
solubility ([1]; Water, 25 °C, vehicle Water): < 5 mg/mL
solubility ([1]; White vaseline, 70 °C, oil or lipid, vehicle White vaseline): < 5 mg/mL
solubility ([1]; White wax, 70 °C, oil or lipid, vehicle White wax): < 5 mg/mL
solubility ([1]; d-a-tocopheryl polyethylene glycol 1000 succinate, 50 °C, oil or lipid, vehicle d-a-tocopheryl polyethylene glycol 1000 succinate): < 10 mg/mL

C[C@@H]1C[C@H]2[C@@H]3CCC4=CC(=O)C=C[C@]4(C)[C@@]3(F)[C@@H](O)C[C@]2(C)[C@@]1(O)C(=O)CO [Dex, Dexamethasone]
ear swelling (ear swelling response) ([2]; ICR mice, phorbol ester 5 μg/ear, result in words): significant decrease in ear swelling
Suppression Rate: % suppression Vs G1-right ear ([2]; female ICR mice, phorbol ester (PMA) 5 μg/ear, topical treatment, ear thickness 6 hours after challenge, vs vehicle (Acetone) group): 27.14%
